According to the supplement of paper PMC10307832:

The cell lines below were run with CC1=NN=C(O1)C2=NN=C(C=C2)N3CCC(CC3)OC4=C(C=CC(=C4)F)Cl + COc1cc2c(Oc3ccc(NC(=O)C4(C(=O)Nc5ccc(F)cc5)CC4)cc3F)ccnc2cc1OCCCN1CCOCC1 [Foretinib] (partner 0.25 µM) (assay: relative viability (nuclei count vs DMSO), 5 days (fraction); higher = more cells survive). Details: first compound 8 µM.
How it was run: (§1)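 Medians of duplicate plates are given as relative viability. That measure is the nuclei count in treated wells divided by the count in vehicle wells. Counts were taken on 4× images of lung cancer cell lines in 1536-well plates, 5 days after pin-tool dosing the day after seeding with one drug alone or a fixed anchor-drug dose plus five library-drug doses (not always all listed) in √10 steps.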

Cell Line	relative viability
SW 900	0.73
NCI-H650	1.06
NCI-H661	0.731
NCI-H1299	1.02
NCI-H1563	0.951
ABC-1	0.644
NCI-H358	0.41

Each cell line was assayed with CC1=NN=C(O1)C2=NN=C(C=C2)N3CCC(CC3)OC4=C(C=CC(=C4)F)Cl + Nc1nc2[nH]cc(CCc3ccc(C(=O)N[C@@H](CCC(=O)O)C(=O)O)cc3)c2c(=O)[nH]1 [Pemetrexed] (partner 0.2 µM) in the same assay as above. Details: first compound 0.253 µM.
How it was run: as §1

Cell Line	relative viability
NCI-H522	1.02
SK-LU-1	1.03
NCI-H1792	0.735
NCI-H2087	0.561
NCI-H596	0.52
NCI-H1355	0.715
SW 1573	0.819
LCLC-103H	0.435
NCI-H2405	0.595
EMC-BAC-2	0.452
NCI-H23	0.669
HCC-366	0.0851
NCI-H1755	0.424
NCI-H838	0.235
LK-2	0.318
NCI-H2347	0.422
NCI-H2342	0.646
SK-MES-1	0.681
H3255	0.506
COR-L23	0.179
COR-L 105	1.2
LU99A	0.149
ChaGo-K-1	0.245
NCI-H2170	0.241
HCC-44	0.264
NCI-H1648	0.593
NCI-H650	0.943
NCI-H661	0.736
NCI-H1563	0.735
NCI-H358	0.148

Same assay, conditions: first compound 0.8 µM

Cell Line	relative viability
NCI-H522	0.947
SK-LU-1	0.9
NCI-H1792	0.648
NCI-H2087	0.534
NCI-H596	0.494
NCI-H1355	0.562
SW 1573	0.881
LCLC-103H	0.418
NCI-H2405	0.562
EMC-BAC-2	0.419
NCI-H23	0.543
HCC-366	0.121
NCI-H1755	0.426
NCI-H838	0.251
LK-2	0.256
NCI-H2347	0.406

Cell Line	relative viability
NCI-H2342	0.663
SK-MES-1	0.853
H3255	0.533
COR-L23	0.193
COR-L 105	1.07
LU99A	0.18
ChaGo-K-1	0.265
NCI-H2170	0.218
HCC-44	0.378
SW 900	0.444
NCI-H1648	0.625
NCI-H650	0.65
NCI-H661	0.695
NCI-H1563	0.878
NCI-H358	0.167

Same assay, conditions: first compound 2.53 µM

Cell Line	relative viability
NCI-H522	1.14
SK-LU-1	0.867
NCI-H1792	0.785
NCI-H2087	0.511
NCI-H596	0.476
NCI-H1355	0.949
SW 1573	0.828
LCLC-103H	0.403
NCI-H2405	0.563
EMC-BAC-2	0.485
NCI-H23	0.698
HCC-366	0.174
NCI-H1755	0.418
NCI-H838	0.215
LK-2	0.377
NCI-H2347	0.442

Cell Line	relative viability
NCI-H2342	0.701
SK-MES-1	0.828
H3255	0.518
COR-L23	0.176
COR-L 105	1.18
LU99A	0.162
ChaGo-K-1	0.248
NCI-H2170	0.242
HCC-44	0.282
SW 900	0.486
NCI-H1648	0.647
NCI-H650	0.781
NCI-H661	0.676
NCI-H1563	0.825
NCI-H358	0.139

Same assay, conditions: first compound 8 µM

Cell Line	relative viability
NCI-H522	0.959
SK-LU-1	0.829
NCI-H1792	0.6
NCI-H2087	0.47
NCI-H596	0.394
NCI-H1355	0.874
SW 1573	0.534
LCLC-103H	0.409
NCI-H2405	0.594
EMC-BAC-2	0.527
NCI-H23	0.622
HCC-366	0.15
NCI-H1755	0.365
NCI-H838	0.23
LK-2	0.255
NCI-H2347	0.39

Cell Line	relative viability
NCI-H2342	0.614
SK-MES-1	0.628
H3255	0.577
COR-L23	0.181
COR-L 105	1.29
LU99A	0.164
ChaGo-K-1	0.266
NCI-H2170	0.256
HCC-44	0.31
SW 900	0.449
NCI-H1648	0.685
NCI-H650	0.814
NCI-H661	0.652
NCI-H1563	0.648
NCI-H358	0.162
